Data published in patent US12637434B2, “Salt of arylaminoquinazoline-containing compound, and preparation method therefor and use thereof” (priority 2020, dated 2026).
≈ marks a conversion by molar mass, not a printed value. Entries after “also recorded” stand apart in the source; their conditions may differ. Read-outs that look alike come from different tables or passages of the source.

How the values were obtained:
[1] = Solubility test in water and pH 2.0 buffer (HPLC); format: physicochemical
Description: 2. Solubility (Water and pH 2.0 Buffer)
Detection Instrument: Agilent 1260 High Performance Liquid Chromatograph
Detection medium: purified water, pH 2.0 phosphoric acid-disodium hydrogen phosphate buffer
Preparation of control solution: it was taken that an appropriate amount of the referen ce substance of the compound of Formula 1, accurately weighed, dissolved completely by solven t and diluted to 100 μg/mL. 10 μL of the prepared solution was accurately measured and the conte nts of Compound 1 were determined by HPLC.
The salts obtained in Preparation Example 1, Examples 1 to 4 and 9 and Comparative Examples 1 to 2 were tested for solubility in water and pH 2.0 buffer.

[2] = Solubility test in conventional organic solvents; format: physicochemical
Description: Solubility Test in Conventional Organic Solvents
The solubility test of the sample of Preparation Example 1 in different organic solvents was carried out by using the method in the Pharmacopoeia (Volume II, the general examples), and the solubility of the sample of Example 1 in different organic solvents was estimated using the gravimetric method, and the results were shown in Table 15.

human melanoma A375 = assay: Pharmacodynamic experiment of human melanoma A375 nude mice xenograft tumor model; format: in vivo, nu/nu female nude mice; settings: for Animal number (Survival/total) / Tumor weight / Inhibition rate %: once a day, 20 days; for Tumor weight / Inhibition rate %: Day 21; for Inhibition rate %: tumor weight
Description: Pharmacodynamic Experiment of Human Melanoma A375 Nude Mice Xenograft Tumor Model
A well-growing human melanoma A375 cell suspension was inoculated into the subcutaneous tissue of the forelimb axilla of nu/nu female nude mice in an inoculation volume of 0.1 mL containing approximately 1×10^7 tumor cells. When the tumor volume grew to 100 mm^3 or more, the mice with good tumor growth were selected, and the animals were evenly divided into 5 groups according to the tumor volume: a Vehicle group, a Vandetanib 12.5 mg/kg group, a Vandetanib 25 mg/kg group, an Example 1 sample 12.5 mg/kg group, and an Example 1 sample 25 mg/kg group, and there were 6 animals in each group. The Vehicle group was orally administered with distilled water, and the remaining groups were orally administered with the corresponding tested drugs in a dosing volume of 20 mL/kg, once a day, and continuously administered for 20 days. The animals were housed normally after administration, and the anti-tumor effect of the tested drugs was dynamically observed by using the method of measuring the diameter of the tumors. At the end of the experiment (Day 21), the animals were sacrificed, and the tumors, were stripped and weighed, and the tumor inhibition rate was calculated.

[3] = Slurrying in organic solvents, crystalline form by XRPD; format: physicochemical; settings: ~15 mg in 0.5 mL of solvents of Table 15, room temperature and 50° C.
Description: Note: The sample of Example 1 (˜15 mg) was added to 0.5 mL of the different solvents listed in Table 15, and slurried at room temperature and 50° C., and the filtered sample was subjected to X-ray powder diffraction. The crystalline form was consistent with that of the dihydrochloride salt obtained in Example 1.

[4] = Solubility test in biological vehicles (FaSSIF, FeSSIF, SGF); format: physicochemical; settings: for solubility at 0.5 h: 37 °C, thermodynamic from solid, 37° C., 200 rpm, target concentration 10 mg/mL, unit inferred
Description: 9. Determination of Solubility in Biological Vehicles
The preparation procedures of the biological vehicles (SGF, FeSSIF and FaSSIF) used for solubility determination were shown in the following table:
Test method: a sample to be tested was added to a biological vehicles and prepared into a solution or suspension having a target concentration of 10 mg/mL. The resulting solution or suspension was shaken continuously at 200 rpm at 37° C. The suspension was filtered at 0.5 hour and the concentration of the compound in the filtrate was determined by using HPLC.
Solubility Test in Biological Vehicles
The samples of Example 1 and Example 10 (20 mg each) were weighed, and different biological vehicles (2 mL) were added threreto to perform the solubility test, and the results were shown in Table 11.

Solid stability test = format: physicochemical; settings: 40° C./75% RH (open), 7 days
Description: The dihydrochloride salt of Example 1 and the dihydrochloride salt tetrahydrate of Example 2 and Example 10 were all placed under the condition of 40° C./75% RH (open) for 7 days to perform the stability test.

Long-term stability test = format: physicochemical
Description: An appropriate amount of the salt samples obtained in Examples 1 to 4 and 9 were sealed with a polyethylene film and placed for 5 months under the conditions of 40±2° C. and 75%±5% RH, and a long-term test was carried out.

[5] = Mechanical stability test; format: physicochemical; settings: mechanical grinding for 5 minutes
Description: Mechanical Stability Test
An appropriate amount of the dihydrochloride salt of Example 1 was subjected to mechanical grinding for 5 minutes, and X-ray powder diffraction was performed.

[6] = 40 ± 2° C., 75% ± 5% RH, 5 months, sealed with polyethylene film

## COc1cc2c(Nc3ccc(Br)cc3F)ncnc2cc1OCCCCN(C)C [Example 1]
[1]; 25° C., pH 2.0 phosphoric acid-disodium hydrogen phosphate buffer
  Solubility (25° C., mg/mL) Medium: pH 2.0 buffer: 14.29 mg/mL
[1]; 25° C., purified water
  Solubility (25° C., mg/mL) Medium: Water: 40.07 mg/mL (≈ 86500 µM)
[1]; pH 2.0 buffer, acidic conditions
  solubility in pH 2.0 buffer compared with Preparation Example 1 (in words): slightly better
[1]; water, listed as dihydrochloride salt
  water-solubility (in words): best of all samples
[2]; Acetone, Preparation Example 1 by Pharmacopoeia method, Example 1 estimated by gravimetric method
  Solubility (mg/mL) in Acetone: <0.46 mg/mL
[2]; Acetonitrile, Preparation Example 1 by Pharmacopoeia method, Example 1 estimated by gravimetric method
  Solubility (mg/mL) in Acetonitrile: <0.38 mg/mL
[2]; Dichloromethane, Preparation Example 1 by Pharmacopoeia method, Example 1 estimated by gravimetric method
  Solubility (mg/mL) in Dichloromethane: <0.44 mg/mL
[2]; Ethanol, Preparation Example 1 by Pharmacopoeia method, Example 1 estimated by gravimetric method
  Solubility (mg/mL) in Ethanol: ~0.55 mg/mL (≈ 1190 µM)
[2]; Ethyl acetate, Preparation Example 1 by Pharmacopoeia method, Example 1 estimated by gravimetric method
  Solubility (mg/mL) in Ethyl acetate: <0.38 mg/mL
[2]; Isopropanol, Preparation Example 1 by Pharmacopoeia method, Example 1 estimated by gravimetric method
  Solubility (mg/mL) in Isopropanol: <0.40 mg/mL
[2]; Tetrahydrofuran, Preparation Example 1 by Pharmacopoeia method, Example 1 estimated by gravimetric method
  Solubility (mg/mL) in Tetrahydrofuran: <0.37 mg/mL
[2]; all solvents of Table 15 except methanol
  solubility in the other seven commonly used organic solvents (in words): very poor solubility
Human melanoma A375; 12.5 mg/kg oral
  Animal number (Survival/total): 6/6
  Tumor weight: 1.77 ± 0.85 g
  Inhibition rate %: 47.99%
Human melanoma A375; 25 mg/kg oral
  Animal number (Survival/total): 6/6
  Tumor weight: 1.34 ± 1.15 g
  Inhibition rate %: 60.52%
Human melanoma A375; 12.5 and 25 mg/kg oral, compared with the Vehicle group
  effect on growth of tumors (in words): significantly inhibit the growth of tumors
[3]
  crystalline form after slurrying in conventional organic solvents (XRPD): consistent; also recorded: stable
[4]; FaSSIF, pH 6.5, fassif, read-out: Solubility in FaSSIF (pH 6.5)
  solubility at 0.5 h: > 10000 µg/mL
[4]; FaSSIF, FeSSIF, SGF
  solubility in biological vehicles with different pH (in words): good solubility
[4]; FeSSIF, pH 5, fessif, read-out: Solubility in FeSSIF (pH 5.0)
  solubility at 0.5 h: 5070 µg/mL (≈ 10900 µM)
[4]; SGF, pH 1.2, simulated gastric fluid, read-out: Solubility in SGF (pH 1.2)
  solubility at 0.5 h: > 10000 µg/mL
Solid stability test
  Crystalline form: Unchanged
  Purity: 99.64%
Long-term stability test; 40 ± 2° C., 75% ± 5% RH, 5 months
  Purity (5 months): 99.60%
Long-term stability test; [6]
  Appearance: White powder
  Crystalline form: Unchanged
Long-term stability test; start of long-term stability test, 0 month
  Purity (0 month): 99.62%
[5]
  crystalline form after mechanical grinding (XRPD): not changed
